# In patent US20040229816A1, “Anti-angiogenic and anti-tumoral properties of beta and gamma secretase inhibitors” (priority 2003, published 2004):
# pIC50: −log10 of the molar value. Entries after “also recorded” stand apart in the source; their conditions may differ. Like-named read-outs stand apart in the source and are kept apart here. Numbered stars: 1 amine (or outer) side, 2 acyl side, 3 side chain; on linkers, the order of the positions; unused ones are H or OH. Square brackets hold non-standard residues; d marks the D form. Peptide text beside a SMILES is read from it. LeuΨ(S-CHOHCH2)Ala = CC(C)C[C@H](N[*:1])[C@@H](O)C[C@@H](C)C(=O)[*:2]; Sta = CC(C)C[C@H](N)[C@@H](O)CC(=O)O
# Tests used:
# [1] = system: human brain endothelial cells; assay: viability of human brain endothelial cells (LDH activity in culture medium); assay type: cell-based; conditions: 24 hours; for cellular toxicity / viability of human brain endothelial cells versus control: doses employed; for LDH activity in the culture medium, ANOVA main effect: various doses
# Description: (§1) Primary cultures of human brain endothelial cells were plated at a density of 10^4 cells/[…] of EBM 4% in 96 wells culture plates and treated with various doses of γ-secretase and β-secretase inhibitors as indicated in the figure legends. Following 24 hours in culture, the EBM covering the cells was removed and assayed for Lacticodehydrogenase (LDH) activity using the cytotoxicity detection kit (Roche Diagnostic Corporation, Ind.). Cells were covered with […] of EBM 4% and cellular proliferation measured using the Quick cell proliferation assay kit (Biovision Research Products, Calif.).
# [2] = angiogenesis in vitro (test not specified); assay type: cell-based
# [3] = system: human brain endothelial cells; assay: proliferation of human brain endothelial cells (Quick cell proliferation assay kit); assay type: cell-based; conditions: various doses, 24 hours
# Description: as §1
# [4] = system: human lung adenocarcinoma (A-549) xenografts; assay: human lung adenocarcinoma A-549 xenografts in nude mice; assay type: in vivo
# Description: FIG. 9a: Anti-tumoral effect of the γ-secretase inhibitor DAPT and of the β-secretase inhibitor Z-VLL-CHO on human lung adenocarcinoma (A-549) xenografts growth rates. A-549 cells (8.5×10^6) were injected subcutaneously into both flanks of 8-10 weeks-old nude mice. Mice were injected intraperitoneally with either the vehicle, 5 mg/Kg of body weight of the β-secretase inhibitor Z-VLL-CHO or 10 mg/Kg of body weight of the γ-secretase inhibitor DAPT, starting when tumors had reached a mean tumor volume of approximately 200 mm^3 (day 21 post implantation). Injections were given everyday for 12 days. […] FIG. 9b: Representative pictures of sections of lung adenocarcinoma tumors immunostained with CD31 antibodies. FIG. 9c: Histogram depicting the quantification of the vascularization of lung adenocarcinoma tumors.
# FIG. 10: Anti-tumoral effect of the γ-secretase inhibitor JLK-6 on human lung adenocarcinoma (A-549) xenografts growth rates. A-549 cells (8.5×10^6) were injected subcutaneously into both flanks of 8-10 weeks-old nude mice. Mice were injected intraperitoneally everyday from Day 16 (when the tumors reached a volume of approximately 150 mm^3) with either the vehicle or 5 mg/Kg of body weight of the γ-secretase inhibitor JLK-6.
# The human glioblastoma U-87 MG and human lung adenocarcinoma A-549 cell lines were obtained from American Tissue Culture Type Collection (Manassas, Va.) and were grown in DMEM containing 1×penicilline-streptomycine-fungizone and 10% fetal bovine serum at 37° C. in a humidified atmosphere of 5% CO2. Tumor cells (6×106) in 100 μl of PBS were inoculated subcutaneously into both flanks of 8-10-week-old female nude mice (Harland). Tumor volume (in mm^3) was determined using the formula (length×width^2)/2, where length was the longest axis and width the measurement at right angles to the length (Clarke et al. 2000). When the tumor volumes reached approximately 150 mm^3, animals were treated intraperitoneally everyday with 100 μl of 50% DMSO/H2O (vehicle group), 5 mg/Kg of body weight of Z-VLL-CHO (β-secretase inhibitor), 5 mg/Kg of JLK-6 (γ-secretase inhibitor) or with 10 mg/Kg of body weight of DAPT. Data were expressed as mean tumor volume±S.E for each treatment group.
# At the completion of the study, animals were humanely euthanized and tumors were harvested and fixed in paraformaldehyde 4% overnight at 4° C. After paraffin embedding in an automated tissue processing Sakura Tissue-Tek (E150) (Torrence, Calif.), samples were cut into 5 μm sections, deparafinized, and rehydrated through a graded series of alcohol. Sections were treated with 0.02 mg/ml Proteinase K (Gentra Systems, MN) for 15 minutes at 37° C. to allow for proper antigen retrieval, washed several times in PBS and incubated for 15 minutes in a 0.3% solution of hydrogen peroxide. Sections were blocked and then immunostained with a 1:40 dilution of a PECAM-1 antibody (BD-Pharmingen, CA) overnight at 4° C. in a humidification chamber. Vector ABC Kits (Vector Laboratories Inc, CA) where used following the manufacturer's instruction for the immunostaining. Quantification of tumor vascularization was performed using the stereological dissector method. Briefly, forty consecutive sections were taken from a randomly chosen starting point in each tumor. Five sections for each tumor were selected for stereology by taking one section every eight sections. A dissector counting frame was used with inclusion and exclusion lines throughout the reference area. Vessel count was performed at ×400 magnification with the use of an Olympus microscope connected to a digital video camera. Microvessels were counted in the dissector frame by an experimenter unaware of the different treatment conditions. For each tumor an average vessel count per area of dissector frame was determined. A vascular index was calculated by expressing the vessel count as a percentage of the vessel count in the vehicle treatment condition.
# [5] = system: presenilin 1 and 2; conditions: cited from earlier work
# [6] = system: Notch; conditions: cited from earlier work
# [7] = biological target: γ-secretase; conditions: 7PA2 cells; cited from earlier work
# [8] = system: Aβ; conditions: cited from earlier work
# [9] = system: presenilin; conditions: cited from earlier work
# [10] = biological target: γ-secretase; conditions: cited from earlier work
# [11] = system: aspartyl protease cathepsin; conditions: cited from earlier work
# [12] = system: Human middle cerebral artery endothelial cells; assay: capillary morphogenesis assay; assay type: cell-based
# Description: Two hundred μl of Matrigel were placed into each well of a 24-well culture plate at 4° C. and allowed to polymerize by incubation at 37° C. Human middle cerebral artery endothelial cells (5×104) were seeded on the Matrigel in 1 ml of EBM containing 4% fetal calf serum. The cells were incubated at 37° C. for 20 hours in a humidified 5% CO2 atmosphere in the presence or absence of various doses of γ-secretase and β-secretase inhibitors as indicated in the figure legends. The experiments were performed in quadruplicate for each treatment condition. For each culture, 2 randomly chosen fields were photographed using a 4×objective. An experimenter unaware of the different treatments measured the total length of tube structures in each photograph using the Image Pro Plus software (Media Cybernetic, Inc., Md.). Capillary network lengths for the different treatment conditions were expressed as the percentage of capillary network lengths obtained in the control condition.
# [13] = system: explants of rat aortae; assay: rat aortic ring model of angiogenesis (microvessel outgrowths); assay type: cell-based, Sprague Dawley rats
# Description: Twenty four well tissue culture grade plates (Nalgene International, NY) were covered with […] of Matrigel (Becton-Dickinson, Bedford, Mass.) and allowed to gel for 30 min at 37° C., 5% CO2. Briefly, thoracic aortae were excised from 9 month-old Sprague Dawley rats. After removing the fibroadipose tissue, arteries were sectioned into 1 mm long cross sections, rinsed 5 times with EBM (Clonetics Corp.) containing 4% fetal bovine serum (FBS) and placed on the Matrigel coated wells. Artery rings were covered with an additional […] of Matrigel. After polymerization the Matrigel was covered with 1 mL of EBM (4% FBS) containing various doses of Z-VVL-CHO, OM99-2, P10-P4′statV, DAPT, or L-685,458 as indicated in the figure legends (the culture medium was changed every 3 days). Pictures were taken at day 4, 5 and 6 using a 4×objective. Microvessel outgrowth area was quantified using the Image Pro Plus software. Briefly, ring cultures were photographed using a digital video camera linked to an Olympus BX60 microscope. The outgrowth area was delineated and measured with the Image Pro Plus software by using a strategy of microvessel outgrowth detection based on difference in color intensities between the outgrowths, the Matrigel and the artery ring. The artery rings were manually selected and excluded from the area of measurement and the color intensity threshold was adjusted to selectively measure the area occupied by the microvessel outgrowths. Results were expressed as a percentage of the area occupied by microvessel outgrowths at day 4 in control condition.
# [14] = system: APP; assay: α-sAPP secretion by human brain endothelial cells (immunoprecipitation, immunoblotting); assay type: cell-based; conditions: 5 μM, 24 hours
# Description: (§2) Confluent human brain endothelial cells (grown on 75 cm2 flasks with EBM 4% FBS medium) were treated for 24 hours with 5 μM of Z-VVL-CHO, 5 μM of L-685,458, 5 μM of OM99-2, 5 AM of DAPT or went untreated (control). Experiments were done in quadriplicate for each treatment condition. 6E10 (Signet), a mAb that recognizes residues 1-17 of human Aβ (Van Nostrand et al., Nature, 341, 546-549, 1989) was used to immunoprecipitate soluble APP generated following cleavage by α-secretase from cell culture medium. Immunoprecipitated material was resolved on a 4-20% gradient SDS-PAGE, transferred to PVDF membranes and immunodetected with mAb 22C11 (Roche Diagnostics) that recognizes the amino acids 66-81 of the N-terminal portion of APP (Hibich, C., J. Biol. Chem., 268, 26571-26577, 1993). Human brain endothelial cells were lysed on ice using MPERTM reagent (Pierce) supplemented with 1 mM PMSF and 1 mM of sodium-orthovanadate. Samples were sonicated and centrifuged at 10,000 g for 30 min at 4° C. The protein content of the lysates was determined using the BCA Protein assay kit (Pierce). Total lysates ([…] of protein/sample) were separated on a 4-20% gradient SDS-PAGE and transferred to PVDF membranes and immunoprobed with mAb 22C11 in order to detect full length APP and also immunoprobed with an Anti-APP-CT20 (Calbiochem) antibody which recognizes the amino acid residues 751-770 of the carboxyl terminal region of APP (Pinnix et al. 2001; J. Biol. Chem., 276, 481).
# [15] = system: APP; assay: carboxyl-terminal APP fragments in human brain endothelial cell lysates (immunoblotting); assay type: cell-based; conditions: 5 μM, 24 hours
# Description: as §2
# [16] = biological target: BACE (Homo sapiens, UniProt P56817); conditions: cited from earlier work
# Chain of BACE (P56817 46-501, species assumed): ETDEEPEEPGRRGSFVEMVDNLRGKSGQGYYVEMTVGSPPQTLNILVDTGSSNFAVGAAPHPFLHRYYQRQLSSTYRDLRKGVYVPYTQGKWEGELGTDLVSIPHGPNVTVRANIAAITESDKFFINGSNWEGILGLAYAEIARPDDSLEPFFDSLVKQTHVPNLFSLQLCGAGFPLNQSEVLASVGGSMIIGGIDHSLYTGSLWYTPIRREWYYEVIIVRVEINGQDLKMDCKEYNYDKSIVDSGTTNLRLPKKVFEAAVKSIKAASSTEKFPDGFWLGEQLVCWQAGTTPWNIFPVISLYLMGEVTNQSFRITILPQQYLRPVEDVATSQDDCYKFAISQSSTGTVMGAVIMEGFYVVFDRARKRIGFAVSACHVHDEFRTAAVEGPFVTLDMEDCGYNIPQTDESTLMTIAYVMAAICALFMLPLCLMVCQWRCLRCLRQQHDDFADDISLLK
compound,measurement,setting,value
"CC(C)C[C@H](NC(=O)[C@H](CC(N)=O)NC(=O)[C@@H](NC(=O)[C@@H](N)CCC(=O)O)C(C)C)[C@@H](O)C[C@@H](C)C(=O)N[C@@H](C)C(=O)N[C@@H](CCC(=O)O)C(=O)N[C@@H](Cc1ccccc1)C(=O)O [OM99-2, Glu-Val-Asn-Leu-ψ-Ala-Ala-Glu-Phe [ψ denotes replacement of CONH by (S)—CH(OH)CH2]] (H-EVN[LeuΨ(S-CHOHCH2)Ala]AEF-OH)",cellular toxicity / viability of human brain endothelial cells versus control,[1],without affecting their viability
same,"LDH activity in the culture medium, ANOVA main effect",[1],significant main effect
"COc1oc(=O)c2cc(N)ccc2c1Cl [JLK-6, 7-amino-4-chloro-3-methoxyisocoumarin]",angiogenesis in vitro,[2],appears to reduce angiogenesis
same,"proliferation of human brain endothelial cells, dose dependence",[3],dose dependently inhibited
same,vascularization of A-549 tumors,[4]; 5 mg/Kg intraperitoneally,inhibited
same,growth (tumor volume) of A-549 xenografts versus vehicle,[4]; 5 mg/Kg intraperitoneally everyday from Day 16,inhibited; also recorded: significantly inhibits the growth; also recorded: inhibit the growth
same,cellular toxicity / viability of human brain endothelial cells versus control,[1],without inducing cellular toxicity
same,proteolysis of presenilin 1 and 2,[5],does not affect
same,processing of Notch,[6],does not affect
"COC(=O)C(NC(=O)C(C)NC(=O)Cc1cc(F)cc(F)c1)c1ccccc1 [DAPM, N-[N-3,5-difluorophenacetyl]-L-alanyl-S-phenylglycine methyl ester]",pIC50,[7],~8.00
same,"proliferation of human brain endothelial cells, dose dependence",[3],dose dependently inhibited
same,cellular toxicity / viability of human brain endothelial cells versus control,[1],without inducing cellular toxicity
same,early Aβ oligomerization (Aβ dimer and trimer formation),[8],prevents
"CC(C)CC(NC(=O)C(Cc1ccccc1)CC(O)C(Cc1ccccc1)NC(=O)OC(C)(C)C)C(=O)NC(Cc1ccccc1)C(N)=O [L-685,458, {1S-Benzyl-4R-[1-(1S-carbamoyl-2-phenethylcarbamoyl)-1S-3-methylbutylcarba-moyl]-2R-hydroxy-5-phenyl-pentyl}carbamic acid tert-butyl ester]",binding to presenilin,[9],binds to presenilin
same,pIC50,[10]; read-out: Ab40 IC50,7.32
same,pIC50,[10]; read-out: Ab42 IC50,7.17
same,pIC50,[10]; read-out: Abtotal IC50,7.77
same,selectivity for γ-secretase than for the aspartyl protease cathepsin,[11],over a hundred-fold greater
same,capillary network length / capillary morphogenesis versus control,"[12]; 5 μM, 20 hours",potent angiogenic effect
same,capillary morphogenesis,[12]; low dose,stimulated capillary morphogenesis
same,"proliferation of human brain endothelial cells, dose dependence",[3],dose dependently inhibited
same,area covered by microvessel outgrowths versus control,[13]; 1 μM,inhibited
same,area covered by microvessel outgrowths versus control,[13]; 5 μM,inhibited
same,cellular toxicity / viability of human brain endothelial cells versus control,[1],without inducing cellular toxicity
same,"LDH activity in the culture medium, ANOVA main effect",[1],no main effect
same,secretion of α-sAPP,[14],not
same,Notch intracellular domain production,[6],blocks
same,accumulation of carboxyl-terminal APP fragments (APP CTF),[15],stimulates
same,accumulation of carboxyl-terminal APP fragments (APP CTF),[15]; listed as L-685-485,promoted the accumulation
"CC(C)C[C@H](NC(=O)[C@H](CC(N)=O)NC(=O)[C@@H](NC(=O)[C@@H](N)CCC(=O)O)C(C)C)[C@@H](O)CC(=O)N[C@H](C(=O)N[C@@H](C)C(=O)N[C@@H](CCC(=O)O)C(=O)N[C@@H](Cc1ccccc1)C(N)=O)C(C)C [GL189, H-Glu-Val-Asn-Statine-Val-Ala-Glu-Phe-NH] (H-EVN[Sta]VAEF-NH2)",cellular toxicity / viability of human brain endothelial cells versus control,[1],without affecting their viability
"H-Lys-Thr-Glu-Glu-Ile-Ser-Glu-Val-Asn-Stat-Val-Ala-Glu-Phe-OH [P10-P4′statV, H-Lys-Thr-Glu-Glu-Ile-Ser-Glu-Val-Asn-Stat-Val-Ala-Glu-Phe-OH [Stat=(3S,4S)-Statine]]","sprouting of microvessel outgrowths, overall / dose dependence","[13]; day 4, 5 and 6",dose dependently and potently inhibited
same,pIC50,[16],7.52
